Measured values as given in patent US20230357271A1, “MACROCYCLIC COMPOUND” (Asahi Kasei Pharma Corporation, priority 2020, published 2023).

Key:
[1] = from CC(C)(C)OC(=O)N1CC[C@H](N)C[C@H]1C(=O)OCCCOc1c(OCc2ccccc2)ccc2ncc(Br)cc12; cn_pd bond; 14-membered ring; tBuXPhos Pd G3/Cs2CO3; 1,4-dioxane; 98.8 mM; 120.0 °C; 72.0 h
[2] = from CC(C)(C)OC(=O)N1CC[C@H](N)C[C@H]1C(=O)OCCCOc1c(OCc2ccccc2)ccc2ncc(Br)cc12; cn_pd bond; tBuXPhos Pd G3 / Cs2CO3; 1,4-dioxane; 98.8 mM; 120.0 °C; 72.0 h

CC(C)(C)OC(=O)N1CC[C@H]2C[C@H]1C(=O)OCCCOc1c(OCc3ccccc3)ccc3ncc(cc13)N2
ring closure, isolated yield [1]: 7% | ring closure, yield of all isomers [2]: 7%
